The record followed here is patent US20040033276A1, “Coating composition for cereals having a preventive or treating effect on diabetes and cereals coated thereby” (priority 2002, published 2004).

For the experiment, the system named is α-glucosidase. Kind of experiment: Inhibition of α-glucosidase by extracts of herb medicine. The experiment is classed as biochemical. Particulars: 0.1 ml extract. As to the method:
Inhibitory activities of various herb extracts on the activity of α-glucosidase, which catalyzes the digestion of a polysaccharide to monosaccharides, were examined as follows. Extracts of various herb medicines listed in Table 4 below were prepared in accordance with the method of Reference Example 2. Added to 0.27 ml of 2 mM substrate (p-nitrophenyl-α-D-glucopyranoside, Sigma, U.S.A.) were 0.03 ml of α-glucosidase(Sigma, U.S.A.), 0.2 ml of 20 mM phosphate buffer (pH 7.0) and 0.1 ml of respective extracts obtained above. The resulting mixture was incubated in a 37° C. thermostat(Vision Science, Korea) for 30 minutes, and 0.5 ml of 1 M glycine-NaOH (pH 9.0) was added thereto to stop the reaction. […] Negative control was treated with distilled water instead of the herb extract, and positive control, with acarbose(Glucobay™, Bayer) and DNJ (Deoxynojirimycin, Dep. Seruculture & Entomology, NIAST), which are representative α-glucosidase inhibitors. Activities of the respective extracts for inhibiting α-glucosidase were calculated by the following equation and the result is shown in Table 4. Inhibition (%)=(1−Absorbance of a sample/Absorbance of the negative control)×100

`OC[C@H]1NC[C@H](O)[C@@H](O)[C@@H]1O` [DNJ, Deoxynojirimycin]: the “Inhibition (%)” value (relative to negative control) was 80.79%. This compound registered an Absorbance (405 nm, 37° C., 30 minutes) of 0.7641 ± 0.0021.
